Reference: ChEMBL document CHEMBL4613253, “Effective Application of Metabolite Profiling in Drug Design and Discovery” (J Med Chem, 2020)
One block for each molecule: values may come before it.

Legend:
[1] = Drug metabolism in human liver microsomes assessed as peak area for GSH-EE-quinone conjugate formation at 10 uM measured after 60 mins in presence of NADPH by LC-MS/MS analysis; format: ADME, Microsome; details: 1 h
[2] = biological target: cGMP-dependent 3',5'-cyclic phosphodiesterase (Homo sapiens, UniProt O00408); assay: Inhibition of PDE2 (unknown origin)
Chain of cGMP-dependent 3',5'-cyclic phosphodiesterase (O00408 whole entry): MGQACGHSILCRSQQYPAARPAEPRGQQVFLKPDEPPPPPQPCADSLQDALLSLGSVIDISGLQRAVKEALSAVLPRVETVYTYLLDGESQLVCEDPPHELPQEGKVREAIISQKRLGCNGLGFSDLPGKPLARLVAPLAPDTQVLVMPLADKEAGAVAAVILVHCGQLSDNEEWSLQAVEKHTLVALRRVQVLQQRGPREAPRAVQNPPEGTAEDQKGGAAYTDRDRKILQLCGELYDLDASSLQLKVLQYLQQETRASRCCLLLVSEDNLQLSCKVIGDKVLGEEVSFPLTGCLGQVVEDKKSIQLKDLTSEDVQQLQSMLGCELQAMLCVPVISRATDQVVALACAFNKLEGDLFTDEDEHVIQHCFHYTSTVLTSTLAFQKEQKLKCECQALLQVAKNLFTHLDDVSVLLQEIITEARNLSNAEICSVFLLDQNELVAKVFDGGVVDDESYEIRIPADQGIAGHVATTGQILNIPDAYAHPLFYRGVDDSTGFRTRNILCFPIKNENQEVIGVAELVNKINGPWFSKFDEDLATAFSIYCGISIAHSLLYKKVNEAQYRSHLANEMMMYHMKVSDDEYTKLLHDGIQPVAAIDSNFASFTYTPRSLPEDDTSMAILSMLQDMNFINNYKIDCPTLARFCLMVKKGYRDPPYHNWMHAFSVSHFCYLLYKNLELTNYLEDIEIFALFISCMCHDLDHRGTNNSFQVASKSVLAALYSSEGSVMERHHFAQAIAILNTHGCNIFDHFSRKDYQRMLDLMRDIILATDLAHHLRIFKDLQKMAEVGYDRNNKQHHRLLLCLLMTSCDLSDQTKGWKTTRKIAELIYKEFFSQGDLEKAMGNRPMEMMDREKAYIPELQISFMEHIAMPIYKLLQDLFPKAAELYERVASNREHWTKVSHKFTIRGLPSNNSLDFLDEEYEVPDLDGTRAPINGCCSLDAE

[3] = AUC(0 to infinity) in human carrying CYP3A5*3/*3 allele at 300 mg, po measured up to 32 hrs; format: ADME, organism-based; parameters: dose 300 mg, route oral, time infinity; details: in vivo
[4] = AUC(0 to infinity) in human carrying CYP3A5*1/*1 allele at 300 mg, po measured up to 32 hrs; format: ADME, organism-based; parameters: dose 300 mg, route oral, time infinity; details: in vivo
[5] = AUC(0 to infinity) in human carrying CYP3A5*1/*3 allele at 300 mg, po measured up to 32 hrs; format: ADME, organism-based; parameters: dose 300 mg, route oral, time infinity; details: in vivo
[6] = Half life in dog plasma at 1 uM incubated for 0 to 120 mins by LC-MS/MS method; format: ADME, cell-free, Canis lupus familiaris
[7] = Half life in monkey plasma at 1 uM incubated for 0 to 120 mins by LC-MS/MS method; format: ADME, cell-free, Macaca mulatta; details: rhesus monkey
[8] = Half life in human plasma at 1 uM incubated for 0 to 120 mins by LC-MS/MS method; format: ADME, cell-free
[9] = Oral bioavailability in rat; format: ADME, organism-based; details: in vivo
[10] = Half life in guinea pig plasma at 1 uM incubated for 0 to 120 mins by LC-MS/MS method; format: ADME, cell-free, Cavia porcellus
[11] = Plasma clearance in po or iv dosed rat plasma; format: ADME, organism-based
[12] = Protein binding in po or iv dosed rat plasma assessed as free fraction; format: ADME, organism-based
[13] = Elimination half life in po or iv dosed rat; format: ADME, organism-based; details: in vivo, read-out: beta t1/2 (converted)
[14] = biological target: T1, Glucose-dependent insulinotropic receptor (Homo sapiens, UniProt Q8TDV5); assay: Agonist activity at human GPR119 expressed in HEK293 cells preincubated for 30 mins followed by d2 cAMP addition and measured after 60 mins by HTRF assay; format: functional, cell-based
T1 sequence (Q8TDV5 whole entry): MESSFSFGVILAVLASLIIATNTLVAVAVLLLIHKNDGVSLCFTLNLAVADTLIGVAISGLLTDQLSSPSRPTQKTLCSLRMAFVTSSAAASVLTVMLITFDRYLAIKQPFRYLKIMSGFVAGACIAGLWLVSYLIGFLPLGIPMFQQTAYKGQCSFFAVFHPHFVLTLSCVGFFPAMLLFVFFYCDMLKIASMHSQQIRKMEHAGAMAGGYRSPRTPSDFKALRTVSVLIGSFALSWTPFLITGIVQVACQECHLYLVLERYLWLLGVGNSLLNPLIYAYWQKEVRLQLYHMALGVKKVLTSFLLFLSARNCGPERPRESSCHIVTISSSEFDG

[15] = Volume of distribution at steady state in po or iv dosed rat; format: ADME, organism-based; details: in vivo, read-out: Vdss
[16] = Half life in rat plasma at 1 uM incubated for 0 to 120 mins by LC-MS/MS method; format: ADME, cell-free
[17] = Half life in human liver microsomes at 1 uM measured up to 60 mins by LC-MS/MS analysis; format: ADME, Microsome
[18] = Plasma clearance in Wistar-Han rat at 1 mg/kg, iv measured up to 24 hrs by LC-MS/MS analysis; format: ADME, organism-based
[19] = Half life in dog liver microsomes at 1 uM measured up to 60 mins by LC-MS/MS analysis; format: ADME, Canis lupus familiaris, Microsome
[20] = Plasma clearance in Beagle dog at 1 mg/kg, iv measured up to 24 hrs by LC-MS/MS analysis; format: ADME, organism-based, Canis lupus familiaris
[21] = Half life in rat liver microsomes at 1 uM measured up to 60 mins by LC-MS/MS analysis; format: ADME, Microsome

SMILES: Cc1nnc(C(C)C)n1[C@@H]1C[C@H]2CC[C@@H](C1)N2CC[C@H](NC(=O)C1CCC(F)(F)CC1)c1ccccc1 [MARAVIROC]
- AUC(0-inf) [3]: 2100 ng·h/mL
- AUC(0-inf) [4]: 1240 ng·h/mL
- AUC(0-inf) [5]: 1760 ng·h/mL

SMILES: CC(C)OC(=O)N1CCN(c2ncc(-c3ccc4nccnc4c3)cc2C#N)CC1
- half-life at 1 µM [6]: > 6.17 h
- half-life at 1 µM [7]: > 6.17 h
- half-life at 1 µM [8]: > 6.17 h

SMILES: C[C@H](Cc1ccc(F)c(F)c1)n1c(-c2ncccc2O)nc2ccnc(C(F)(F)F)c2c1=O
- Activity [1]: 3000

Next, values leading:

- Activity [1]: 166810
SMILES: C[C@H](Cc1ccccc1)n1c(-c2ccccc2O)nc2ccnc(C(F)(F)F)c2c1=O

- IC50 [2]: 10 nM
SMILES: CCc1ccc(-c2c(-c3nn(C)c4ncnc(N5CC(O)C5)c34)cnn2C)cc1

- bioavailability [9]: 70%
- half-life at 1 µM [10]: > 6.17 h
- clearance [11]: 13.4 mL/min/kg
- fraction unbound [12]: 0.03
- half-life [13]: 2.6 h
- half-life at 1 µM [8]: > 6.17 h
- EC50 [14]: 1.7 nM
- Vd [15]: 3 L/kg
- half-life at 1 µM [16]: > 6.17 h
SMILES: Cc1cc(-c2ccc(N3CCC(c4nc(C(C)C)no4)CC3)nc2)c(C#N)cc1C#N

- IC50 [2]: 42 nM
SMILES: CC(O)c1ccc(-c2c(-c3nn(C)c4ncnc(N5CCC5)c34)cnn2C)cc1 (centres undefined)

- half-life at 1 µM [17]: > 2 h
- clearance [18]: 73 mL/min/kg
- half-life at 1 µM [19]: 0.187 h
- clearance [20]: 12 mL/min/kg
- half-life at 1 µM [21]: 8.6 min
SMILES: COc1ccc(-c2cc(=O)[nH]c(=S)n2CCO)c(OC)c1
